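All cell lines were grown in 96-well plates and treated with compound for 48 hours. At the GI50, growth is halved.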 The source made the active and inactive calls. Cut-off read from the data, not from the text of the source: active = GI50 up to about 1.1 µM and inactive = higher.
Assays:
Experiment in all cases: NCI-60 cell line screen, 48 h
786-0 = tested on: 786-0
A549 = tested on: A549
ACHN = tested on: ACHN
CCRF-CEM = tested on: CCRF-CEM
HCT-116 = tested on: HCT-116
HOP-62 = tested on: HOP-62
IGROV-1 = tested on: IGROV-1
MCF7 = tested on: MCF7
MDA-MB-231 = tested on: MDA-MB-231
MDA-MB-435 = tested on: MDA-MB-435
MOLT-4 = tested on: MOLT-4
NCI/ADR-RES = tested on: NCI/ADR-RES
OVCAR-8 = tested on: OVCAR-8
PC-3 = tested on: PC-3
SF-295 = tested on: SF-295
SF-539 = tested on: SF-539
SK-MEL-2 = tested on: SK-MEL-2
SW-620 = tested on: SW-620
T47D = tested on: T47D
UO-31 = tested on: UO-31

SMILES | GI50 (786-0) | GI50 (A549) | GI50 (ACHN) | GI50 (CCRF-CEM) | GI50 (HCT-116) | GI50 (HOP-62) | GI50 (IGROV-1) | GI50 (MCF7) | GI50 (MDA-MB-231) | GI50 (MDA-MB-435) | GI50 (MOLT-4) | GI50 (NCI/ADR-RES) | GI50 (OVCAR-8) | GI50 (PC-3) | GI50 (SF-295) | GI50 (SF-539) | GI50 (SK-MEL-2) | GI50 (SW-620) | GI50 (T47D) | GI50 (UO-31)
CCOC(=O)Cc1nnc2n(-c3ccccc3)c(=O)c3ccccc3n12 | > 100 µM (inactive) | > 100 µM (inactive) | > 100 µM (inactive) | > 100 µM (inactive) | 90.8 µM (inactive) | 62.4 µM (inactive) | > 100 µM (inactive) | > 100 µM (inactive) | > 100 µM (inactive) | > 100 µM (inactive) | > 100 µM (inactive) | > 100 µM (inactive) | > 100 µM (inactive) | 34.5 µM (inactive) | > 100 µM (inactive) | 51.6 µM (inactive) | 41.6 µM (inactive) | > 100 µM (inactive) | > 100 µM (inactive) | > 100 µM (inactive)
Cc1c(-c2ccccc2)n[nH]c1NC1(C)C(=O)N(/N=C/c2ccccc2)N=C1c1ccccc1 (stereo not given) | > 100 µM (inactive) | 7.4 µM (inactive) | 24.7 µM (inactive) | 25.9 µM (inactive) | > 59.2 µM (inactive) | > 100 µM (inactive) | > 100 µM (inactive) | 4.78 µM (inactive) | > 100 µM (inactive) | 52.7 µM (inactive) | 10.2 µM (inactive) | 43.8 µM (inactive) | > 100 µM (inactive) | 24.9 µM (inactive) | 68.2 µM (inactive) | > 100 µM (inactive) | > 84.1 µM (inactive) | > 93.3 µM (inactive) | > 26 µM (inactive) | > 100 µM (inactive)
CCN(CC)CCCC(C)Nc1c2ccc(Cl)cc2nc2ccc(OC)cc12 (stereo not given) | 0.993 µM (active) | 1.65 µM (inactive) | 2.42 µM (inactive) | 1 µM (active) | 0.61 µM (active) | 2.22 µM (inactive) | 1.76 µM (inactive) | 2.08 µM (inactive) | 10.1 µM (inactive) | 1.47 µM (inactive) | 0.518 µM (active) | 1.86 µM (inactive) | 1.05 µM (active) | 1.78 µM (inactive) | 0.729 µM (active) | 1.67 µM (inactive) | 1.67 µM (inactive) | 0.637 µM (active) | 2.31 µM (inactive) | 2.08 µM (inactive)
O=C(O)C(Cc1ccc2c(c1)CCC2)(Cc1ccc2c(c1)CCC2)C(=O)O | > 100 µM (inactive) | > 100 µM (inactive) | > 100 µM (inactive) | > 100 µM (inactive) | > 100 µM (inactive) | > 100 µM (inactive) | > 100 µM (inactive) | > 100 µM (inactive) | 29.2 µM (inactive) | > 100 µM (inactive) | > 100 µM (inactive) | > 100 µM (inactive) | > 100 µM (inactive) | > 100 µM (inactive) | > 100 µM (inactive) | > 100 µM (inactive) | > 100 µM (inactive) | > 100 µM (inactive) | > 100 µM (inactive) | > 100 µM (inactive)
Cc1ccc(/C=C2\N=C(N3CCCC(CO)C3)NC2=O)cc1 (stereo not given) | > 100 µM (inactive) | > 100 µM (inactive) | > 100 µM (inactive) | > 100 µM (inactive) | > 100 µM (inactive) | > 100 µM (inactive) | > 100 µM (inactive) | > 100 µM (inactive) | > 100 µM (inactive) | > 100 µM (inactive) | > 100 µM (inactive) | > 100 µM (inactive) | > 100 µM (inactive) | > 100 µM (inactive) | > 100 µM (inactive) | > 100 µM (inactive) | > 100 µM (inactive) | > 100 µM (inactive) | > 100 µM (inactive) | > 100 µM (inactive)

From ChEMBL document CHEMBL1201862, “PubChem BioAssay data set” (2004)
